The values below come from ChEMBL document CHEMBL5465560, “Selectivity Literature for EUbOPEN Chemogenomic Library” (2024).

The structures appear in SMILES notation. A value given as a limit tells only on which side of the number the result lay.

Test [1] concerns the target T1, Tyrosine-protein kinase JAK3 (Homo sapiens) (UniProt P52333).
T1 sequence (whole entry): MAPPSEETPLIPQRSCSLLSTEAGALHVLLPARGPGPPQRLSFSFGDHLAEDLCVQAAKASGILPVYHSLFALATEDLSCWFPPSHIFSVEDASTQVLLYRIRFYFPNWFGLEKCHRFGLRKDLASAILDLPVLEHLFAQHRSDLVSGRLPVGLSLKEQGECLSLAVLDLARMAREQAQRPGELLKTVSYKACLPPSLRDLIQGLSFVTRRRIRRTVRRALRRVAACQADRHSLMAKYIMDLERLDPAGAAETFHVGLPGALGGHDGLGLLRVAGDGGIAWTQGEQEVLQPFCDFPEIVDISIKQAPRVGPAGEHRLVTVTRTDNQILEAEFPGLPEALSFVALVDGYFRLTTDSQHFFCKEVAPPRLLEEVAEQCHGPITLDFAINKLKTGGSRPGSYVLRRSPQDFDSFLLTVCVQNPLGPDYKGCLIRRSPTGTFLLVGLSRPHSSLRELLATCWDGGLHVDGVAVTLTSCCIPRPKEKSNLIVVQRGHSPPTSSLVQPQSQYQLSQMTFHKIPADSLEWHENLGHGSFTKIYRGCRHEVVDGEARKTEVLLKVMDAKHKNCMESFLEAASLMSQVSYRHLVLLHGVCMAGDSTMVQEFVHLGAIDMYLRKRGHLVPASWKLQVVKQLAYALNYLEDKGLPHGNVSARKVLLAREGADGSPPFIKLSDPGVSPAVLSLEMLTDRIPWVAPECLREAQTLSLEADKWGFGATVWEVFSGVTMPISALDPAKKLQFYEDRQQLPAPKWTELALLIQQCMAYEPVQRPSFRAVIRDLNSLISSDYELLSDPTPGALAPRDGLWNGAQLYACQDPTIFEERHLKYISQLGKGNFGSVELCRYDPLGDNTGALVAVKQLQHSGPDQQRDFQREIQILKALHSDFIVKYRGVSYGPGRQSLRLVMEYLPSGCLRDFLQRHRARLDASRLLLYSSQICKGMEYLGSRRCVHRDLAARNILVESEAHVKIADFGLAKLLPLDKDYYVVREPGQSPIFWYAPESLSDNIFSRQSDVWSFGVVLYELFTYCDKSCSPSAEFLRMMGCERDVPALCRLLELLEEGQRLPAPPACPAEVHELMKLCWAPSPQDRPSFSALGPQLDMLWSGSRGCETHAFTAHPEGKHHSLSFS
In words: Selectivity interaction (KinomeScan (DiscoverX)) EUB0000666a JAK3. Conditions: at 10 µM.

In test [2] the target is Calcium/calmodulin-dependent protein kinase type 1 (Homo sapiens) (UniProt Q14012). In words: Selectivity interaction (KinomeScan (DiscoverX)) EUB0001619a CAMK1. Conditions: at 1 µM.
Calcium/calmodulin-dependent protein kinase type 1 (Homo sapiens), sequence (Q14012 whole entry, looked up): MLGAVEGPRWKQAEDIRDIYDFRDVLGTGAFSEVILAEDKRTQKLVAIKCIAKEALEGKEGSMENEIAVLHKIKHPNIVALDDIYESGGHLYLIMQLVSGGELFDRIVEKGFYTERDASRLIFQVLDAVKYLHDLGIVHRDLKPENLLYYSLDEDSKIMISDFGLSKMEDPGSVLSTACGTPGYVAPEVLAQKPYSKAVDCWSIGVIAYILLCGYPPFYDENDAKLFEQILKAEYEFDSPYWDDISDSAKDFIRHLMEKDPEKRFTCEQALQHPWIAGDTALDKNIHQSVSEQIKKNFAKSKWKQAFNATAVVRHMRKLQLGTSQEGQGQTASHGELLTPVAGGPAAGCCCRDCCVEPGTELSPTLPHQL
Test [3] has as its target Protein kinase C alpha type (Homo sapiens, UniProt P17252). In words: Selectivity interaction (Millipore kinase profiler) EUB0000124b PRKCA. Conditions: at 10 µM.
The target of test [4] is Tyrosine-protein kinase receptor Tie-1 (Homo sapiens) (UniProt P35590). As to the kind of experiment: Selectivity interaction (KinomeScan (DiscoverX)) EUB0001049a TIE1. Conditions: at 1 µM.
Tyrosine-protein kinase receptor Tie-1 (Homo sapiens), sequence (P35590 whole entry): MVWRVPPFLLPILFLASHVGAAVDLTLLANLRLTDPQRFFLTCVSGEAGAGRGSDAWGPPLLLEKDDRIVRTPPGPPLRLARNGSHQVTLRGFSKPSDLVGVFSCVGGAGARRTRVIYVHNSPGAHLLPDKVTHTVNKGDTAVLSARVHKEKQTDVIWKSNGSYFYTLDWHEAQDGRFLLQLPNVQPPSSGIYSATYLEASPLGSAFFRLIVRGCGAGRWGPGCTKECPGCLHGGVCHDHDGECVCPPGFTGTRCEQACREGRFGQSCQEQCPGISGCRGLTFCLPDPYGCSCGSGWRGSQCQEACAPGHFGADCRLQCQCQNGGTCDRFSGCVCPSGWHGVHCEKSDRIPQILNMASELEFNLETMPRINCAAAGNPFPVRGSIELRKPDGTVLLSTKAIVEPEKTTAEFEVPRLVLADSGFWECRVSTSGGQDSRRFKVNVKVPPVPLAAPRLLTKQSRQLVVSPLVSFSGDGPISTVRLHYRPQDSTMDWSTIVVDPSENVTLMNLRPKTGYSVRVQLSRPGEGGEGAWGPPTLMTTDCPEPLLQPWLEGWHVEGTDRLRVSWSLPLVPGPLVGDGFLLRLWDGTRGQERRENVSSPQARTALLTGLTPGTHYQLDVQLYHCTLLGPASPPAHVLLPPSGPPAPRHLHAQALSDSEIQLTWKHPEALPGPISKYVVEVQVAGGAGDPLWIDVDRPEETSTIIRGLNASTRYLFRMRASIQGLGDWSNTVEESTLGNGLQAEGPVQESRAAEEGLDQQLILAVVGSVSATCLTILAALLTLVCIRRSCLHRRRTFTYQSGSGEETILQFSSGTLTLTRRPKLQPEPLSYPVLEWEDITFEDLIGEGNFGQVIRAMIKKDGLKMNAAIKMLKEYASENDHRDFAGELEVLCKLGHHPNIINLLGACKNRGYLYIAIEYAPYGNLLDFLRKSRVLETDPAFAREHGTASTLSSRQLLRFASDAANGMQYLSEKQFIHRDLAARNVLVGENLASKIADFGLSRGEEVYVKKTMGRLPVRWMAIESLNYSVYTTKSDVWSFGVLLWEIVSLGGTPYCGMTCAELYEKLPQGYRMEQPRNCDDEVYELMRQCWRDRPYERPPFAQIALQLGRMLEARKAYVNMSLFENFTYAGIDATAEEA
For test [5], the target named is T2, NUAK family SNF1-like kinase 1 (Homo sapiens) (UniProt O60285).
T2 sequence (whole entry): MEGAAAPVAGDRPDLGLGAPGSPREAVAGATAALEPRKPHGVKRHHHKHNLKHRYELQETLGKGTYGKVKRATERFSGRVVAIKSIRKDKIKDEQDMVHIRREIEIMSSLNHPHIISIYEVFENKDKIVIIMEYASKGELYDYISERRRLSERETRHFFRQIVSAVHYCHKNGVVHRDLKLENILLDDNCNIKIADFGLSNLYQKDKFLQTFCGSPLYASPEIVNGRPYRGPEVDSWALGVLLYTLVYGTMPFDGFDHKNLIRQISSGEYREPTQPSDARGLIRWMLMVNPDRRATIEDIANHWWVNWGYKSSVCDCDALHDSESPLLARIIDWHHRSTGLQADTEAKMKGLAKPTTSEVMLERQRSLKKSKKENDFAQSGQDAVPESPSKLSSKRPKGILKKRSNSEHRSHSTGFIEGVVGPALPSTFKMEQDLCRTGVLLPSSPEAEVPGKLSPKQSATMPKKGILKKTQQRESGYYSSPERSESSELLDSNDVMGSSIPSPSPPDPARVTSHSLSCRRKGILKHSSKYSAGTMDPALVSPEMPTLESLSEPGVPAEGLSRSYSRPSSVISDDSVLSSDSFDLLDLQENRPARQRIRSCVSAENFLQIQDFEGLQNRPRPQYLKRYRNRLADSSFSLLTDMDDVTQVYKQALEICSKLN
In words: Selectivity interaction (ProQinase) EUB0000171b NUAK1.

Test [6] concerns the target Histone-lysine N-methyltransferase EZH2 (Homo sapiens) (UniProt Q15910). In words: Selectivity interaction (Transferase panel (protein, RNA, and DNA methyltransferases. and EP300 (acetyltransferase))) EUB0000270b EZH2.
The target of test [7] is T3, Membrane-associated tyrosine- and threonine-specific cdc2-inhibitory kinase (Homo sapiens) (UniProt Q99640).
T3 sequence (whole entry): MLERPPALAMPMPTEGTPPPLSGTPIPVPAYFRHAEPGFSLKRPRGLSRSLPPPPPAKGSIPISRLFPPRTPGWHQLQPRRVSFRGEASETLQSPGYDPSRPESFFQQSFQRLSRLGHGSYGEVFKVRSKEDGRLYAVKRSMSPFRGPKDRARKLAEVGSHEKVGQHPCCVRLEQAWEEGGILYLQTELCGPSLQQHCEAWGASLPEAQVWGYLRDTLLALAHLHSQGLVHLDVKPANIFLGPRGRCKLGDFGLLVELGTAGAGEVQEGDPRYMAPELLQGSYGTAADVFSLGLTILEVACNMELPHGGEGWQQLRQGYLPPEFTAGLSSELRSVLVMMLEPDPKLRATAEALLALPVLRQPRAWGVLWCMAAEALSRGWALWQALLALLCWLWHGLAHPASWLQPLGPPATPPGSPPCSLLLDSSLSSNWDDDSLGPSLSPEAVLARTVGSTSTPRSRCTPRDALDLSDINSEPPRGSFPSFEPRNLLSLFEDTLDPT
As to the kind of experiment: Selectivity interaction (KinomeScan (DiscoverX)) EUB0000045b PKMYT1.

For test [8], the target named is Interferon-induced, double-stranded RNA-activated protein kinase (Homo sapiens) (UniProt P19525). In words: Selectivity interaction (KinomeScan (DiscoverX)) EUB0000595a EIF2AK2. Conditions: at 10 µM.
Interferon-induced, double-stranded RNA-activated protein kinase (Homo sapiens), sequence (P19525 whole entry): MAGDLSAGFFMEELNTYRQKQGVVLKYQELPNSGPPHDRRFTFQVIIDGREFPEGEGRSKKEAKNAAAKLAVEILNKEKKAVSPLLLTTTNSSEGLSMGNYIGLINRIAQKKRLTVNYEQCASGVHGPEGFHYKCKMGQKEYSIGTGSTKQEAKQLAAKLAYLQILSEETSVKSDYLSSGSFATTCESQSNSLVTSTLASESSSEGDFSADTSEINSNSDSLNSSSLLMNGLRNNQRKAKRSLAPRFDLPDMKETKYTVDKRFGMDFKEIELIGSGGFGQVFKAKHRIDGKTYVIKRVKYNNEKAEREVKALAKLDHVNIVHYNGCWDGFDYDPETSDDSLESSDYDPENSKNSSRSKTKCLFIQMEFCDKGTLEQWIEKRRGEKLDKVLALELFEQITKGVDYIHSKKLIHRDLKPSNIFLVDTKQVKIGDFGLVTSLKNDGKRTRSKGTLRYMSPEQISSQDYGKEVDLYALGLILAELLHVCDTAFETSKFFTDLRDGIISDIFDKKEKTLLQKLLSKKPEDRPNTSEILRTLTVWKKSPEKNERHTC

Histone-lysine N-methyltransferase EZH2 (Homo sapiens), sequence (Q15910 whole entry, looked up): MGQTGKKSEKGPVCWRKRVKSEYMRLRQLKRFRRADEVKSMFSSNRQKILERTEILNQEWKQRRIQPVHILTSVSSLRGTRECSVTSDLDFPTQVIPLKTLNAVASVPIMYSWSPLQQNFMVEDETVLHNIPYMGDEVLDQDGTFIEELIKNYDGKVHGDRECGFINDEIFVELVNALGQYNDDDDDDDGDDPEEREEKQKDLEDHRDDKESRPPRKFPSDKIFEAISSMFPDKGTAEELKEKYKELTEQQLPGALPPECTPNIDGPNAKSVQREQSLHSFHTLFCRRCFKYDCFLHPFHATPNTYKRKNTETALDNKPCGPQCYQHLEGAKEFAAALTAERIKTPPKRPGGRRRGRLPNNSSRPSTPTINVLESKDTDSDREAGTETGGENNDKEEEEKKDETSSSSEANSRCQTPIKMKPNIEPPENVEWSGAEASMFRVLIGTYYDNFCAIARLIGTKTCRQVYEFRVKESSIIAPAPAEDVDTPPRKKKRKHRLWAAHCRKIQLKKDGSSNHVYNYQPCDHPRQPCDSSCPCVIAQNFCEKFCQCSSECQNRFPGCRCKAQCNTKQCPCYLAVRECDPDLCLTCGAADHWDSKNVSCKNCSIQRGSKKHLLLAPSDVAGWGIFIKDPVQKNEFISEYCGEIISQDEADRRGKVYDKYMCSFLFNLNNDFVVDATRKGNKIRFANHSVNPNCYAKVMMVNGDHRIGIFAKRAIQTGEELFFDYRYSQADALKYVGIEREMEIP

`O=C(NOC[C@H](O)CO)c1ccc(F)c(F)c1Nc1ccc(I)cc1F` showed a % of control in test [1] of 100%.

In the case of `N#Cc1cccc(-c2c[nH]c3ncnc(N4CCOCC4)c23)c1`, the % of control in test [2] was 89%.

In turn, `CC(=O)Nc1cccc(-n2c(=O)n(C3CC3)c(=O)c3c(Nc4ccc(I)cc4F)n(C)c(=O)c(C)c32)c1` yielded a % of control in test [3] of 101%.

`COc1cc(Nc2nc(C)cc(-c3cnn4nc(OC)ccc34)n2)cc(C(F)(F)F)c1` displayed a % of control in test [4] of 84%.

For the molecule `C=CC(=O)Nc1cccc(C(=O)Nc2ccc(Nc3cc(-c4[nH]c(SC)nc4C)ccn3)cc2)c1`, the % of control in test [5] (at 1 µM) amounted to 97%; in test [5] (at 5 µM), 88%.

Turning to `Cc1cc(CN)cc(C)c1-c1ncn(C)c1-c1cncn1C`, the % activity is greater than 90% in test [6] (at 1 µM) and greater than 80% in test [6] (at 10 µM).

For `C=CC(=O)Nc1cc(-n2c(=O)ccc3cnc4ccc(-c5ccc(NS(C)(=O)=O)cc5)cc4c32)ccc1C`, the % of control in test [7] (at 1 µM) was determined as 77%; in test [7] (at 10 µM), 100%.

In test [8], `COCC(=O)NC/C=C/c1ccc2ncnc(Nc3ccc(Oc4ccc(C)nc4)c(C)c3)c2c1` [CP-724714] returned a % of control of 99%.
